Reference: patent US12281080B2, “Quinoline-based compounds and methods of inhibiting CDK8/19” (University of South Carolina, priority 2018, dated 2025)

What was measured:
CAMK1B (PNCK) = CAMK1B (PNCK) (Homo sapiens (Human), UniProt Q6P2M8); experiment: KINOMEscan scanMAX; format: binding; conditions: 2000 nM; read-out: Percent Control
CAMK2A = CAMK2A (Homo sapiens (Human), UniProt Q9UQM7); experiment: KINOMEscan scanMAX; format: binding; conditions: 2000 nM; read-out: Percent Control
CASK = CASK (Homo sapiens (Human), UniProt O14936); experiment: KINOMEscan scanMAX; format: binding; conditions: 2000 nM; read-out: Percent Control
CDK5 = CDK5 (Homo sapiens (Human), UniProt Q00535); experiment: KINOMEscan scanMAX; format: binding; conditions: 2000 nM; read-out: Percent Control
CLK2 = CLK2 (Homo sapiens (Human), UniProt P49760); experiment: KINOMEscan scanMAX; format: binding; conditions: 2000 nM; read-out: Percent Control
CSF1R-autoinhibited = CSF1R-autoinhibited (Homo sapiens (Human), UniProt P07333); experiment: KINOMEscan scanMAX; format: binding; conditions: 2000 nM; read-out: Percent Control
CSNK1G2 = CSNK1G2 (Homo sapiens (Human), UniProt P78368); experiment: KINOMEscan scanMAX; format: binding; conditions: 2000 nM; read-out: Percent Control
DLK (MAP3K12) = DLK (MAP3K12) (Homo sapiens (Human), UniProt Q12852); experiment: KINOMEscan scanMAX; format: binding; conditions: 2000 nM; read-out: Percent Control
DYRK2 = DYRK2 (Homo sapiens (Human), UniProt Q92630); experiment: KINOMEscan scanMAX; format: binding; conditions: 2000 nM; read-out: Percent Control
FGFR1 = FGFR1 (Homo sapiens (Human), UniProt P11362); experiment: KINOMEscan scanMAX; format: binding; conditions: 2000 nM; read-out: Percent Control
LCK = LCK (Homo sapiens (Human), UniProt P06239); experiment: KINOMEscan scanMAX; format: binding; conditions: 2000 nM; read-out: Percent Control
LOK (STK10) = LOK (STK10) (Homo sapiens (Human), UniProt O94804); experiment: KINOMEscan scanMAX; format: binding; conditions: 2000 nM; read-out: Percent Control
MAK = MAK (Homo sapiens (Human), UniProt P20794); experiment: KINOMEscan scanMAX; format: binding; conditions: 2000 nM; read-out: Percent Control
MAP3K3 = MAP3K3 (Homo sapiens (Human), UniProt Q99759); experiment: KINOMEscan scanMAX; format: binding; conditions: 2000 nM; read-out: Percent Control
MEK6 (MAP2K6) = MEK6 (MAP2K6) (Homo sapiens (Human), UniProt P52564); experiment: KINOMEscan scanMAX; format: binding; conditions: 2000 nM; read-out: Percent Control
MET(M1250T) = MET(M1250T) (Homo sapiens (Human), UniProt P08581, M1250T); experiment: KINOMEscan scanMAX; format: binding; conditions: 2000 nM; read-out: Percent Control
MKNK2 = MKNK2 (Homo sapiens (Human), UniProt Q9HBH9); experiment: KINOMEscan scanMAX; format: binding; conditions: 2000 nM; read-out: Percent Control
MST1R = MST1R (Homo sapiens (Human), UniProt Q04912); experiment: KINOMEscan scanMAX; format: binding; conditions: 2000 nM; read-out: Percent Control
MYLK = MYLK (Homo sapiens (Human), UniProt Q15746); experiment: KINOMEscan scanMAX; format: binding; conditions: 2000 nM; read-out: Percent Control
p38-beta (MAPK11) = p38-beta (MAPK11) (Homo sapiens (Human), UniProt Q15759); experiment: KINOMEscan scanMAX; format: binding; conditions: 2000 nM; read-out: Percent Control
PAK6 = PAK6 (Homo sapiens (Human), UniProt Q9NQU5); experiment: KINOMEscan scanMAX; format: binding; conditions: 2000 nM; read-out: Percent Control
PIKFYVE = PIKFYVE (Homo sapiens (Human), UniProt Q9Y2I7); experiment: KINOMEscan scanMAX; format: binding; conditions: 2000 nM; read-out: Percent Control
PRKCD = PRKCD (Homo sapiens (Human), UniProt Q05655); experiment: KINOMEscan scanMAX; format: binding; conditions: 2000 nM; read-out: Percent Control
PRKCQ = PRKCQ (Homo sapiens (Human), UniProt Q04759); experiment: KINOMEscan scanMAX; format: binding; conditions: 2000 nM; read-out: Percent Control
PRKD2 = PRKD2 (Homo sapiens (Human), UniProt Q9BZL6); experiment: KINOMEscan scanMAX; format: binding; conditions: 2000 nM; read-out: Percent Control
RIOK2 = RIOK2 (Homo sapiens (Human), UniProt Q9BVS4); experiment: KINOMEscan scanMAX; format: binding; conditions: 2000 nM; read-out: Percent Control
SRPK1 = SRPK1 (Homo sapiens (Human), UniProt Q96SB4); experiment: KINOMEscan scanMAX; format: binding; conditions: 2000 nM; read-out: Percent Control
STK36 = STK36 (Homo sapiens (Human), UniProt Q9NRP7); experiment: KINOMEscan scanMAX; format: binding; conditions: 2000 nM; read-out: Percent Control
TBK1 = TBK1 (Homo sapiens (Human), UniProt Q9UHD2); experiment: KINOMEscan scanMAX; format: binding; conditions: 2000 nM; read-out: Percent Control
TIE1 = TIE1 (Homo sapiens (Human), UniProt P35590); experiment: KINOMEscan scanMAX; format: binding; conditions: 2000 nM; read-out: Percent Control
YES (YES1) = YES (YES1) (Homo sapiens (Human), UniProt P07947); experiment: KINOMEscan scanMAX; format: binding; conditions: 2000 nM; read-out: Percent Control
[1] = Mouse pharmacokinetics, oral, serum; format: in vivo, mice
Protocol: To measure pharmacokinetics (PK), Senexin C dissolved in 5% Dextrose was administered orally (p.o.) to female FVB mice at 30 mg/kg. Blood samples were collected at different time points (5 mice per time point) and Senexin C concentration in the serum was measured by LC/MS/MS.

[2] = Serum and tumor PK in mice bearing 22rv1 xenograft tumors; format: in vivo; conditions: i.p. 20 mg/kg, male NcrNU mice
Protocol: To evaluate the PK of Senexin C in tumor tissues, Senexin C dissolved in 5% Dextrose was administered i.p. to male NcrNU mice bearing 22rv1 xenograft tumors (300˜500 mm^3) at 20 mg/kg. Both blood and tumor samples were collected at three different time points (3 mice per time point) after administration and Senexin C concentration in the serum and tumor tissue was measured by LC/MS/MS.

C4-2 xenografts = experiment: PSA mRNA in C4-2 xenografts in mice; format: in vivo; conditions: 40 mg/kg orally daily for 4 days, male NcrNU mice
Protocol: CDK8/19 inhibition decreases the expression of certain androgen-receptor (AR) inducible genes including PSA, the most common marker of prostate cancer, and the growth of castration-refractory prostate cancers (CRPC). The in vivo effects of Senexin C on PSA expression by C4-2 cells were analyzed after treatment of male NcrNU mice bearing C4-2 xenografts (grouped based on tumor sizes) for 4 days at 40 mg/kg administered orally daily.

CDK8 = CDK8 (Homo sapiens (Human), UniProt P49336); experiment: DiscoverX Kd assay

MEK6 (MAP2K6), sequence (P52564 whole entry): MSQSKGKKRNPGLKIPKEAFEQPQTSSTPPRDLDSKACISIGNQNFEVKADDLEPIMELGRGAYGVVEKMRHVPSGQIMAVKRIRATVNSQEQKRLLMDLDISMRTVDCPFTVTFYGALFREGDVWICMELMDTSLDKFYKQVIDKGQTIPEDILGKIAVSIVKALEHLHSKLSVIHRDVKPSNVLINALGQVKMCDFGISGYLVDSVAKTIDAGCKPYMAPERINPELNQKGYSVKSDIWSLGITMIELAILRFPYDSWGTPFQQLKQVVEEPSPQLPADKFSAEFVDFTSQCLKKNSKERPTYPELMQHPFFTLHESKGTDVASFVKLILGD
CSNK1G2, sequence (P78368 whole entry): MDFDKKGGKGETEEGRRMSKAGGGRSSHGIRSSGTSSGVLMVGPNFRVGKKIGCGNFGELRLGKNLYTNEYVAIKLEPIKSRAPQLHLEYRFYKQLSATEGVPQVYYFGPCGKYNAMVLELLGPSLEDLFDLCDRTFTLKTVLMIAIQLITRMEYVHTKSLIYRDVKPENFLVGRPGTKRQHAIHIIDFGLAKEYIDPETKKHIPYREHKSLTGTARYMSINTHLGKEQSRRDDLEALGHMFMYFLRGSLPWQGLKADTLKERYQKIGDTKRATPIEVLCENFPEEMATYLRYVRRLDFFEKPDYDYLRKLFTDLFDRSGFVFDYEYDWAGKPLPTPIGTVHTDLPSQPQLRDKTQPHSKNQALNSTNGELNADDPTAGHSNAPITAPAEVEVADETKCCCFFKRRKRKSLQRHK
CLK2, sequence (P49760 whole entry): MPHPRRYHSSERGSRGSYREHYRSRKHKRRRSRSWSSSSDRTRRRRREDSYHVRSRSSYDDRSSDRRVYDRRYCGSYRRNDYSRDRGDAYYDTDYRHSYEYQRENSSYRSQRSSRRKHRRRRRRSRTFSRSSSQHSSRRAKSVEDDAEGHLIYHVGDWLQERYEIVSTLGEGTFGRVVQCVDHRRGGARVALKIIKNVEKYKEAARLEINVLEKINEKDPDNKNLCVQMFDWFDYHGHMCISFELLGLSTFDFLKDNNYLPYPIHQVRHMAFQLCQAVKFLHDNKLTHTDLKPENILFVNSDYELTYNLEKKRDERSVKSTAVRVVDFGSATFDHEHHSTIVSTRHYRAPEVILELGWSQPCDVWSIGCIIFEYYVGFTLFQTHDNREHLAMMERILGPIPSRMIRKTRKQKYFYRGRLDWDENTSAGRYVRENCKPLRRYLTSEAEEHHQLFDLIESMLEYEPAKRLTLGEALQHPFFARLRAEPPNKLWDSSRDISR
CASK, sequence (O14936 whole entry): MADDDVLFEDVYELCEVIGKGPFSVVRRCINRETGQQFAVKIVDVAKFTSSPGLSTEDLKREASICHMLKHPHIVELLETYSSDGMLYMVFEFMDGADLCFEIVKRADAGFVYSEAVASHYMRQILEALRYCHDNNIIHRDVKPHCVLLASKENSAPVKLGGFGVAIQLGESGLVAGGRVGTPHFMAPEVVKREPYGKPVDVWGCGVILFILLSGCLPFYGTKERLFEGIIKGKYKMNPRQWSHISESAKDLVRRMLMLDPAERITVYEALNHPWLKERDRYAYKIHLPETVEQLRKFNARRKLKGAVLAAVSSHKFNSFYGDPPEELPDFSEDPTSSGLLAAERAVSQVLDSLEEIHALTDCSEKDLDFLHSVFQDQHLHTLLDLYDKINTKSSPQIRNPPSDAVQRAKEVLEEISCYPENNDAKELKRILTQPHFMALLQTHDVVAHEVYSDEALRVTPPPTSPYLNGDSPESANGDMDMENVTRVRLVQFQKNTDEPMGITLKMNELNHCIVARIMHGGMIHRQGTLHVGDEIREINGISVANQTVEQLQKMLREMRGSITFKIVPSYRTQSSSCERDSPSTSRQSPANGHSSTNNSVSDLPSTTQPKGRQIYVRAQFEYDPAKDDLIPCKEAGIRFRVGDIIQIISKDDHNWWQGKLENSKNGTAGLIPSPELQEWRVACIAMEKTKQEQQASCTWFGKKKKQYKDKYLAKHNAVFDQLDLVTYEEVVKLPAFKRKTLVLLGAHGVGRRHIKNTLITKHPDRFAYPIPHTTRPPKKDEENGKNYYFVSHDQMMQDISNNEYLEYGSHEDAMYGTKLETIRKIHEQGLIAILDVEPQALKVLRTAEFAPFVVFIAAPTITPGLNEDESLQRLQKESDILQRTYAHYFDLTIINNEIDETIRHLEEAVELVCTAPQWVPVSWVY
PAK6, sequence (Q9NQU5 whole entry): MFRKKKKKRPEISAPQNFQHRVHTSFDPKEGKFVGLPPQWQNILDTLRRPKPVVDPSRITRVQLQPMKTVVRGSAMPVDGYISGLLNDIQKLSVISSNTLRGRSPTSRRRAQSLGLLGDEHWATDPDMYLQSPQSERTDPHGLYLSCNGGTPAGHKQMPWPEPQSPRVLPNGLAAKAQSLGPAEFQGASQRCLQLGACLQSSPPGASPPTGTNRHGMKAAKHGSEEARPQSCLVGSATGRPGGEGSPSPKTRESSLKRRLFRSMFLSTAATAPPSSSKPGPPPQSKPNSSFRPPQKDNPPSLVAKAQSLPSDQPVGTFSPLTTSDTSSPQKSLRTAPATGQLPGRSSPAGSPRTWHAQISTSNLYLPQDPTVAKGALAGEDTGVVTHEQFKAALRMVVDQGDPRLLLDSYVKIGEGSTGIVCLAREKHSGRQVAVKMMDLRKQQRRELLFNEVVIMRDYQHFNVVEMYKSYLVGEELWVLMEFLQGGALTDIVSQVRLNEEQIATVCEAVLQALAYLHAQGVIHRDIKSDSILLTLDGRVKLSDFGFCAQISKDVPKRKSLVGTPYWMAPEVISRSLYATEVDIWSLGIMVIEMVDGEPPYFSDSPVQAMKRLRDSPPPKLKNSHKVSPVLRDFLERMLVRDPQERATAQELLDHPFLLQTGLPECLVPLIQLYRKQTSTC
PIKFYVE, sequence (Q9Y2I7 whole entry): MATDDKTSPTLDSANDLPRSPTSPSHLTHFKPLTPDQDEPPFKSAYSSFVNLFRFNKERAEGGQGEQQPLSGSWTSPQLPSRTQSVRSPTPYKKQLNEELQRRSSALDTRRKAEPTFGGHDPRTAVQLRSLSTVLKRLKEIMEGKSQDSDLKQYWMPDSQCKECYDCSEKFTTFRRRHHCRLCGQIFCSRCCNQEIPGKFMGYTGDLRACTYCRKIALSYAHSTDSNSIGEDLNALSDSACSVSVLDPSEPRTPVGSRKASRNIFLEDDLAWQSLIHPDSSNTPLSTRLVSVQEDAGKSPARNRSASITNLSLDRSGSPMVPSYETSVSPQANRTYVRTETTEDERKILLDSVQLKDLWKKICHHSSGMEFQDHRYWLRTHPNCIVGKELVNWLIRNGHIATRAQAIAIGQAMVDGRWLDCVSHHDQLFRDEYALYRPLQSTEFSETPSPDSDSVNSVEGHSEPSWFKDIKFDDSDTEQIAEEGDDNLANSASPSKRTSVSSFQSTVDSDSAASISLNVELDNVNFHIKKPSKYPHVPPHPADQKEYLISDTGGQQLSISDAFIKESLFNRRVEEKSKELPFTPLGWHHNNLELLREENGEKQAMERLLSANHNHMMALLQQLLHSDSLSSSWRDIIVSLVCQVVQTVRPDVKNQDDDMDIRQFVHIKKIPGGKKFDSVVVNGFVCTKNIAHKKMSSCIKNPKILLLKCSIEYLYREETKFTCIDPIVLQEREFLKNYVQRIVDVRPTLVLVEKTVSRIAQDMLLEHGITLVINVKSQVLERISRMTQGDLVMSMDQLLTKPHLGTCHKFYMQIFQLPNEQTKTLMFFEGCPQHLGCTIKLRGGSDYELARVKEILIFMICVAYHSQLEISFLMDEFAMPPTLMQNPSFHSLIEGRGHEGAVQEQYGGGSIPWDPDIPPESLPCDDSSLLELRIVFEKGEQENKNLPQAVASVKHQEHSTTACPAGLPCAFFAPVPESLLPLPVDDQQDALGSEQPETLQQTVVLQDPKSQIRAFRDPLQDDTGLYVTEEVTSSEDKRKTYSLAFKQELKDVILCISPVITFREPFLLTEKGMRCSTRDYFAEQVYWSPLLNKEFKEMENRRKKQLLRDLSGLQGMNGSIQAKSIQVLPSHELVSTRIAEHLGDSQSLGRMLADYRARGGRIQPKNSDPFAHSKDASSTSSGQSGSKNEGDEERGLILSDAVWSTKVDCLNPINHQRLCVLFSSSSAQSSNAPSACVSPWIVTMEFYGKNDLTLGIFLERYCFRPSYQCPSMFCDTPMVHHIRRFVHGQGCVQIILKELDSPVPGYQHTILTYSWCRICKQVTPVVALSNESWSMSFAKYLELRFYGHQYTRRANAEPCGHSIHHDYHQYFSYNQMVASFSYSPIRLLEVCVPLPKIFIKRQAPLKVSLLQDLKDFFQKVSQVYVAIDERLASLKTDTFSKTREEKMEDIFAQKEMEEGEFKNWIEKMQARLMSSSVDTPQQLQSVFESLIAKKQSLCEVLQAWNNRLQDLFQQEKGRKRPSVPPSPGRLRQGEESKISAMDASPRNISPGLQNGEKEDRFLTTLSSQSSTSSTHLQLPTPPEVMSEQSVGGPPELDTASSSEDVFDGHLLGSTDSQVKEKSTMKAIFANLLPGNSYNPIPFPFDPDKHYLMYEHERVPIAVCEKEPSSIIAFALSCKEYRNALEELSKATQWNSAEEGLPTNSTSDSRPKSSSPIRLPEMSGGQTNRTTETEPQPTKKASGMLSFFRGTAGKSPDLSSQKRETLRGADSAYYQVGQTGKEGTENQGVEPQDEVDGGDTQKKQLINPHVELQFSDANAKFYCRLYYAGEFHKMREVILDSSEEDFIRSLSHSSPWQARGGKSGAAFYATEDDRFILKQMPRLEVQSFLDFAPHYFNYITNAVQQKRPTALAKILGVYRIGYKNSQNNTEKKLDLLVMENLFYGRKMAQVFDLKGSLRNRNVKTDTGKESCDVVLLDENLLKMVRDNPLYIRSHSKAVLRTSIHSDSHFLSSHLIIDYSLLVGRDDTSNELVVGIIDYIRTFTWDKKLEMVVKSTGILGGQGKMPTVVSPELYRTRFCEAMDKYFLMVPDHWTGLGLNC

For `CN1CCN(C(=O)c2ccc3cc(CCNc4ccnc5ccc(C#N)cc45)ccc3c2)CC1` [compound 6148, 4-((2-(6-(4-methylpiperazine-1-carbonyl)naphthalen-2-yl)ethyl)amino)quinoline-6-carbonitrile], which remaining binding at 2 µM (CAMK1B (PNCK)) is on record?
The remaining binding at 2 µM was 92%.

And the remaining binding at 2 µM (CAMK2A)?
The remaining binding at 2 µM was 100%.

And the remaining binding at 2 µM (CASK)?
The remaining binding at 2 µM was 84%.

What about the remaining binding at 2 µM (CDK5) of the same molecule?
Its remaining binding at 2 µM is 100%.

And the remaining binding at 2 µM (CLK2)?
The remaining binding at 2 µM was 93%.

And the remaining binding at 2 µM (CSF1R-autoinhibited)?
The remaining binding at 2 µM was 91%.

What about the remaining binding at 2 µM (CSNK1G2) of the same molecule?
Its remaining binding at 2 µM is 89%.

And the remaining binding at 2 µM (DLK (MAP3K12))?
Its remaining binding at 2 µM is 68%.

What about the remaining binding at 2 µM (DYRK2) of the same molecule?
Its remaining binding at 2 µM is 68%.

And the remaining binding at 2 µM (FGFR1)?
Its remaining binding at 2 µM is 85%.

What about the remaining binding at 2 µM (LCK) of the same molecule?
The remaining binding at 2 µM was 92%.

And the remaining binding at 2 µM (LOK (STK10))?
The remaining binding at 2 µM was 94%.

And the remaining binding at 2 µM (MAK)?
Its remaining binding at 2 µM is 100%.

And the remaining binding at 2 µM (MAP3K3)?
Its remaining binding at 2 µM is 83%.

What about the remaining binding at 2 µM (MEK6 (MAP2K6)) of the same molecule?
The remaining binding at 2 µM was 80%.

And the remaining binding at 2 µM (MET(M1250T))?
Its remaining binding at 2 µM is 88%.

And the remaining binding at 2 µM (MKNK2)?
The remaining binding at 2 µM was 71%.

And the remaining binding at 2 µM (MST1R)?
The remaining binding at 2 µM was 100%.

What about the remaining binding at 2 µM (MYLK) of the same molecule?
The remaining binding at 2 µM was 83%.

And the remaining binding at 2 µM (p38-beta (MAPK11))?
Its remaining binding at 2 µM is 80%.

What about the remaining binding at 2 µM (PAK6) of the same molecule?
Its remaining binding at 2 µM is 90%.

What about the remaining binding at 2 µM (PIKFYVE) of the same molecule?
Its remaining binding at 2 µM is 86%.

And the remaining binding at 2 µM (PRKCD)?
Its remaining binding at 2 µM is 83%.

And the remaining binding at 2 µM (PRKCQ)?
The remaining binding at 2 µM was 100%.

What about the remaining binding at 2 µM (PRKD2) of the same molecule?
Its remaining binding at 2 µM is 88%.

What about the remaining binding at 2 µM (RIOK2) of the same molecule?
The remaining binding at 2 µM was 64%.

What about the remaining binding at 2 µM (SRPK1) of the same molecule?
Its remaining binding at 2 µM is 91%.

And the remaining binding at 2 µM (STK36)?
Its remaining binding at 2 µM is 88%.

What about the remaining binding at 2 µM (TBK1) of the same molecule?
The remaining binding at 2 µM was 88%.

What about the remaining binding at 2 µM (TIE1) of the same molecule?
The remaining binding at 2 µM was 85%.

What about the remaining binding at 2 µM (YES (YES1)) of the same molecule?
Its remaining binding at 2 µM is 100%.

What about the “Increase of half-time, oral vs i.p.” value ([1]; female, FVB, mouse, in vivo) of the same molecule?
Its value is 4-5 times.

And the half-time ([1]; p.o. 30 mg/kg, female FVB mice)?
The half-time was 3.8 h.

And the “Clearance from tumor tissue compared with blood” value [2]?
Its value is “much slower clearance rate”.

And the Kp ([2]; mouse, tumor tissue (relative to serum), ip, read-out: Amount in tumor tissue relative to blood)?
The Kp was 5 to 10.

And the “PSA mRNA levels in the tumor” value (C4-2 xenografts)?
Its value is “strongly decreased”.

And the Kd (CDK8)?
Its Kd is 0.055 µM.
